Results reported in article PMC4226840, “An open-label study to determine the maximum tolerated dose of the multitargeted tyrosine kinase inhibitor CEP-11981 in patients with advanced cancer” (Investigational New Drugs, 2014).

Legend:
[1] = Plasma pharmacokinetics in patients, single and multiple doses; format: in vivo, human; conditions: single dose, oral; for Mean (SD) Rpred (predicted accumulation ratio): AUC0–∞/AUC0–24 day 1
Experimental: Pharmacokinetic parameters calculated after multiple doses included AUC0-t, Cmax, Tmax, and t½, and observed accumulation ratio (Robs). […] Pharmacodynamics was assessed by VEGFR-2/KDR inhibitory activity in response to CEP-11981 treatment. […] The venous blood samples for pharmacokinetic-pharmacodynamic analysis were collected on days 1 and 15 of dosing during cycle 1 immediately before dose administration and at 1 h postdose, and on day 43. At each draw, 2 samples were obtained in 6-mL sodium heparinized vacutainers. Plasma was obtained and stored at −70 °C until shipment to the sponsor for analysis.

VEGFR-2 = test system: VEGFR-2; set-up: method as in PMID 22148921; conditions: in vitro; cited from earlier work
VEGFR-2/KDR = experiment: Ex vivo bioassay of cellular VEGFR-2/KDR kinase inhibition with patient plasma in TrkA-VEGFR-2/KDR chimeric PAE cells; format: cell-based
Chain of VEGFR-2/KDR (P35968 786-1356 limits assumed): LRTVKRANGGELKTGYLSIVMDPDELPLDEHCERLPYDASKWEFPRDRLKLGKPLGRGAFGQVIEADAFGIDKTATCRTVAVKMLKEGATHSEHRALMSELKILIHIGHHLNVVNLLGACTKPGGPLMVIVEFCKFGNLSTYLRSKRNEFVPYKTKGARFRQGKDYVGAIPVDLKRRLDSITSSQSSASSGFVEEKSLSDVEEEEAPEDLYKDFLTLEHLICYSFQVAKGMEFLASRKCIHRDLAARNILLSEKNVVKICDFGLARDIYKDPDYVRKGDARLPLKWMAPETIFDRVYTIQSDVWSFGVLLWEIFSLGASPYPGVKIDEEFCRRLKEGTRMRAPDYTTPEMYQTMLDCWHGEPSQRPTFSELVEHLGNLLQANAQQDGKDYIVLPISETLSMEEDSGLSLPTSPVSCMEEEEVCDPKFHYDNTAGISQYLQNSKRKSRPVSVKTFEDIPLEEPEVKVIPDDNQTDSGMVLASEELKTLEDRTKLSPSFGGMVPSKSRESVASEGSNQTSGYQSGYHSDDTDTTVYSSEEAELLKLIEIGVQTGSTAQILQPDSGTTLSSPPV
Experimental: Pharmacokinetic parameters calculated after a single dose of CEP-11981 included area under the plasma drug concentration versus time curve (AUC) from zero to infinity (AUC0-∞), to the last measurable concentration (AUC0-t), and to 24 h (AUC0–24); maximum observed plasma drug concentration (Cmax); time to maximum observed plasma drug concentration (Tmax); terminal elimination half-life (t½); and predicted accumulation ratio (Rpred), which was defined as AUC0–∞ (day 1, cycle 1)/AUC0–24 (day 1, cycle 1). Pharmacokinetic parameters calculated after multiple doses included AUC0-t, Cmax, Tmax, and t½, and observed accumulation ratio (Robs). Robs was defined as AUC for 1 dosing interval following multiple doses (AUCτ; day 15, cycle 1)/AUC0–24 (day 1, cycle 1). […] Pharmacodynamics was assessed by VEGFR-2/KDR inhibitory activity in response to CEP-11981 treatment.
The venous blood samples for pharmacokinetic analysis were collected on days 1 and 15 of dosing during cycle 1 immediately before dose administration and at 0.5, 1, 1.5, 2, 3, 4, 6, 8, 12 (this sample was optional and could be collected from 10 to 14 h), and 24 h postdose, as well as on days 8, 22, 29, and 43. The venous blood samples for pharmacokinetic-pharmacodynamic analysis were collected on days 1 and 15 of dosing during cycle 1 immediately before dose administration and at 1 h postdose, and on day 43. At each draw, 2 samples were obtained in 6-mL sodium heparinized vacutainers. Plasma was obtained and stored at −70 °C until shipment to the sponsor for analysis.
A bioassay with engineered chimeric porcine aortic endothelial (PAE) cell lines stably expressing a TrkA-VEGFR-2/KDR domain was used to evaluate human plasma-associated shifts in cellular IC50 for CEP-11981 inhibition of ligand-stimulated VEGFR-2/KDR phosphorylation. Plasma samples for the bioassay were obtained 1 h postdose and on days 1 and 15; they were collected from patients across cohorts.

proto-oncogene c-SRC = test system: proto-oncogene c-SRC; set-up: method as in PMID 22148921; conditions: cited from earlier work

## 11-(2-methylpropyl)-12,13-dihydro-2-methyl-8-(pyrimidin-2-ylamino)-4H-indazolo[5,4-a]pyrrolo[3,4-c]carbazol-4-one [CEP-11981]
[1]; 3.0 mg/m^2, n = 3
  Mean (SD) AUC0-24: 127.0 (16.09) ng•hr/mL
  Mean (SD) Cmax: 13.7 (6.14) ng/mL
  Mean (SD) t½: 8.0 (2.82) hr
  Median (range) Tmax: 6.0 (2.0–6.1) hr
  Mean (SD) Rpred (predicted accumulation ratio): 1.2 (0.15)
[1]; 4.2 mg/m^2, n = 3
  Mean (SD) AUC0-24: 119.3 (14.36) ng•hr/mL
  Mean (SD) Cmax: 16.8 (4.88) ng/mL
  Mean (SD) t½: 7.8 (3.69) hr
  Median (range) Tmax: 4.0 (1.0–6.0) hr
  Mean (SD) Rpred (predicted accumulation ratio): 1.2 (0.12)
[1]; 5.9 mg/m^2, n = 5
  Mean (SD) AUC0-24: 194.8 (66.56) ng•hr/mL
  Mean (SD) Cmax: 26.0 (6.53) ng/mL
  Mean (SD) t½: 5.9 (1.06) hr
  Median (range) Tmax: 2.1 (1.5–4.0) hr
  Mean (SD) Rpred (predicted accumulation ratio): 1.1 (0.05)
[1]; 11.8 mg/m^2, n = 3
  Mean (SD) AUC0-24: 516.7 (125.82) ng•hr/mL
  Mean (SD) Cmax: 84.9 (23.01) ng/mL
  Mean (SD) t½: 6.0 (3.66) hr
  Median (range) Tmax: 1.6 (1.5–3.0) hr
  Mean (SD) Rpred (predicted accumulation ratio): 1.1 (0.12)
[1]; 19.7 mg/m^2, n = 3
  Mean (SD) AUC0-24: 874.0 (357.79) ng•hr/mL
  Mean (SD) Cmax: 135.7 (76.46) ng/mL
  Mean (SD) t½: 5.1 (1.33) hr
  Median (range) Tmax: 4.0 (1.0–4.3) hr
  Mean (SD) Rpred (predicted accumulation ratio): 1.0 (0.06)
[1]; 29.6 mg/m^2, n = 4
  Mean (SD) AUC0-24: 2,376.3 (2,064.06) ng•hr/mL
  Mean (SD) Cmax: 266.9 (181.95) ng/mL
  Mean (SD) t½: 8.5 (5.48) hr
  Median (range) Tmax: 2.3 (1.0–3.1) hr
  Mean (SD) Rpred (predicted accumulation ratio): 1.2 (0.22)
[1]; 41.4 mg/m^2, n = 3
  Mean (SD) AUC0-24: 2,820.3 (2,070.39) ng•hr/mL
  Mean (SD) Cmax: 351.9 (94.39) ng/mL
  Mean (SD) t½: 8.1 (4.54) hr
  Median (range) Tmax: 2.0 (1.0–4.0) hr
  Mean (SD) Rpred (predicted accumulation ratio): 1.2 (0.21)
[1]; 55.0 mg/m^2, n = 5
  Mean (SD) AUC0-24: 2,274.0 (666.44) ng•hr/mL
  Mean (SD) Cmax: 251.9 (119.68) ng/mL
  Mean (SD) t½: 9.5 (2.57) hr
  Median (range) Tmax: 3.0 (3.0–4.0) hr
  Mean (SD) Rpred (predicted accumulation ratio): 1.2 (0.11)
[1]; 73.0 mg/m^2, n = 3
  Mean (SD) AUC0-24: 3,938.7 (1,965.70) ng•hr/mL
  Mean (SD) Cmax: 444.2 (149.44) ng/mL
  Mean (SD) t½: 8.1 (2.19) hr
  Median (range) Tmax: 4.0 (3.0–4.1) hr
  Mean (SD) Rpred (predicted accumulation ratio): 1.2 (0.10)
[1]; 126.6 mg/m^2, n = 2
  Mean (SD) AUC0-24: 5,767.0 (0) ng•hr/mL
  Mean (SD) Cmax: 751.2 (41.49) ng/mL
  Median (range) Tmax: 5.0 (2.0–8.0) hr
VEGFR-2
  IC50: 0.004 µM
VEGFR-2/KDR; 97.4 mg/m^2
  Patients with quintile 5 ex vivo VEGFR-2/KDR inhibition: 3 of 5
VEGFR-2/KDR; 126.6 mg/m^2
  Patients with quintile 5 ex vivo VEGFR-2/KDR inhibition: 1 of 1
VEGFR-2/KDR; plasma from lower dose cohorts (3.0, 4.2, 5.9, 11.8, and 19.7 mg/m^2), normalized to predose baseline
  Inhibition of VEGFR-2/KDR kinase: Less than 50%
VEGFR-2/KDR; plasma primarily from 73.0, 97.4, and 126.6 mg/m^2 cohorts (quintile 5)
  Normalized mean cellular VEGFR-2/KDR inhibition: ≥ 81%
proto-oncogene c-SRC
  IC50: 0.037 µM
